In US20150093451A1, “METHOD OF INCREASING ENERGY EXPENDITURE” (Reoxcyn Discoveries Group, Inc., priority 2007, published 2015):

Tested on: NRF2
Assay: Western Blot validation of NRF2 nuclear accumulation and extra-nuclear protein phosphorylation
Assay type: cell-based, human
Protocol: 8. A Western Blot analysis was done on extra-nuclear and intra-nuclear fractions, separated by differential centrifugation, of serum starved HMVEC-L cell cultures exposed to <1% of a composition of the invention compared with a positive hydrogen peroxide control to determine phosphorylation events (oxidant action) in the extra-nuclear fraction and NRF2 (antioxidant transcription) in the intra-nuclear fraction at 0, 30, 60, 90 and 120 min intervals.
HMVEC-L were treated with 1% of a composition of the invention, nuclear extracts were separated through centrifugal differentiation from the extra-nuclear cytosol at 30, 60 and 120 min and subjected to Western Blot analysis for NRF2. In the Western blot experiment the extra-nuclear fraction was probed for phosphorylated proteins using a combination of anti-phospho serine, threonine and tyrosine antibodies. Virtually all cellular processes are regulated by posttranslational modifications and protein phosphorylation is a prevalent mechanism. Observable changes in protein phosphorylation can lead to a mechanistic understanding of the cellular processes perturbed by compositions of the invention and provide a defined endpoint to better define dose-dependent regulation of cell function by compositions of the invention in vitro, as well as provide a potential candidate molecular marker that may be used to provide in vitro-in vivo correlates. […]

Structure (SMILES): OO [H2O2, Hydrogen peroxide]
- phosphorylation of extra-nuclear protein (HMVEC-L extra-nuclear fraction, 1% composition, H2O2 positive control): marked increase in the phosphorylation
- NRF2 levels in nuclear extracts (HMVEC-L, 1% ASEA 30, 60, 120 min, H2O2 30 min): did not increase nuclear NRF2 levels
